# Data as given in ChEMBL document CHEMBL5143537, “Quinazoline-based hydroxamic acid derivatives as dual histone methylation and deacetylation inhibitors for potential anticancer agents” (Bioorg Med Chem, 2022).
# Columns and labels:
# HepG2 [1] = experiment: Induction of apoptosis in human HepG2 cells assessed as late apoptotic cells at 1.25 uM measured after 48 hrs by Annexin V-FITC/propidium iodide staining based flow cytometry (reference value: 4.55%); assay type: functional
# HepG2 [2] = experiment: Induction of apoptosis in human HepG2 cells assessed as necrotic cells at 1.25 uM measured after 48 hrs by Annexin V-FITC/propidium iodide staining based flow cytometry (reference value: 0%); assay type: functional
# [3] = Half life in rat liver microsomes at 1 uM by LC-MS/MS analysis; assay type: ADME, Microsome
smiles,measurement,setting,value
COc1cc2nc(N3CCN(CCCCCC(=O)NO)CC3)nc(NC3CCN(Cc4ccccc4)CC3)c2cc1OC,Activity,HepG2 [1],2.68%
same,Activity,HepG2 [2],0%
same,half-life at 1 µM,[3],16 min
